Assay type in all cases: cell-based, Human
One assay deals with NCI-N87 cells. Description: Inhibitory effect of compounds on NCI-N87 cell proliferation. The procedure:
(1) Cell plating: First, tumor cells NCI-N87 were cultured in corresponding medium, then digested with trypsin, centrifuged, resuspended, and counted, and the cells were adjusted to an appropriate concentration for plating.
(§1) Co-incubation of the compound of the present disclosure and tumor cells: after the cells adhered to the wall, the medium was removed, and the diluted bioactive molecule (the compound of the present disclosure) was added to the wells of the above plate, and incubated for 72 h.
(§2) In vitro cell viability detection: After the incubation, 50 μL of Cell Counting-Lite™ 2.0 reagent (Vazyme/Novazyme) was added to each well, shaken and mixed well in the dark, reacted for 10 minutes, and then the detection was carried out with a microplate reader (manufacturer: BMG, Model: PHERAStar-FS) for reading. The background RLU was obtained by using cell-free medium (with Cell Counting-Lite™), and the vehicle RLU was obtained by using cell-containing medium (with Cell Counting-Lite™). Cell inhibition rate=1−(sample RLU−background RLU)/(solvent RLU−background RLU)×100%. According to the four-parameter model fitting curve, the half maximal inhibitory concentration (IC50) of the compound was calculated, and the detection results were shown in Table 12.

The test system of the next assay is HT29 cells. The assay is described as follows: Inhibitory effect of compounds on HT29 cell proliferation. The following applies: read-out: IC50, inhibitory activity on HT29 cell proliferation. The procedure: (1) Cell plating: First, tumor cells HT29 were cultured in corresponding medium, then digested with trypsin, centrifuged, resuspended, and counted, and the cells were adjusted to an appropriate concentration for plating.
as §1
as §2, with “2.” for “12.”

The subject of the next assay is Jeko-1 cells. The assay is described as follows: Inhibitory effect of compounds on Jeko-1 cell proliferation. The following applies: read-out: IC50, inhibitory activity on Jeko-1 cell proliferation. The procedure: (1) Cell plating: First, tumor cells Jeko-1 were cultured in corresponding medium, then digested with trypsin, centrifuged, resuspended, and counted, and the cells were adjusted to an appropriate concentration for plating.
as §1
as §2, with “20.” for “12.”

The test system of the next assay is MDA-MB-231 cells. The assay is described as follows: Inhibitory effect of compounds on MDA-MB-231 cell proliferation. The following applies: read-out: IC50, inhibitory activity on MDA-MB-231 cell proliferation. As to the method: (1) Cell plating: First, tumor cells MDA-MB-231 were cultured in corresponding medium, then digested with trypsin, centrifuged, resuspended, and counted, and the cells were adjusted to an appropriate concentration for plating.
as §1
as §2, with “18.” for “12.”

The test system of the next assay is Hela cells. The assay is described as follows: Inhibitory effect of compounds on Hela cell proliferation. The settings on record: Homo sapiens, HeLa, 72 h, read-out: IC50, inhibitory activity on Hela cell proliferation. The procedure: (1) Cell plating: First, tumor cells Hela were cultured in corresponding medium, then digested with trypsin, centrifuged, resuspended, and counted, and the cells were adjusted to an appropriate concentration for plating.
as §1
as §2, with “14.” for “12.”

The test system of another assay is A549 cells. The assay is described as follows: Inhibitory effect of compounds on A549 cell proliferation. The following applies: Homo sapiens, A549, 72 h, read-out: IC50, inhibitory activity on A549 cell proliferation. The procedure: (1) Cell plating: First, tumor cells A549 were cultured in the corresponding medium, then digested with trypsin, centrifuged and resuspended, and counted, and the cells were adjusted to an appropriate concentration for plating.
as §1
as §2, with “activity” for “viability”, “4.” for “12.”

The next assay has as its system SKOV-3 cells. Description: Inhibitory effect of compounds on SKOV-3 cell proliferation. The settings on record: Homo sapiens, SK-OV-3, 72 h, read-out: IC50, inhibitory activity on SKOV-3 cell proliferation. As to the method: (1) Cell plating: First, tumor cells SKOV-3 were cultured in corresponding medium, then digested with trypsin, centrifuged, resuspended, and counted, and the cells were adjusted to an appropriate concentration for plating.
as §1
as §2, with “8.” for “12.”

A further assay has as its system NCI-H358 cells. Description: Inhibitory effect of compounds on NCI-H358 cell proliferation. The settings on record: Homo sapiens, NCI-H358, 72 h, read-out: IC50, inhibitory activity on NCI-H358 cell proliferation, NCI-H358 human non-small cell lung cancer cells, 72 h incubation, Cell Counting-Lite 2.0. As to the method:
(1) Cell plating: First, tumor cells NCI-H358 were cultured in corresponding medium, then digested with trypsin, centrifuged, resuspended, and counted, and the cells were adjusted to an appropriate concentration for plating.
as §1
as §2, with “10.” for “12.”

Molecules are shown by their SMILES. Read-outs that look alike come from different tables or passages of the source.

Take `CC[C@@]1(O)C(=O)OCc2c1cc1n(c2=O)Cc2c-1nc1cc(F)c(C)c3c1c2[C@H](CN)CC3` (single isomer, unassigned) [Example 13 (5-7-B)]: the IC50 is 7.31 nM with NCI-N87 cells (Homo sapiens, NCI-N87, 72 h, read-out: IC50, inhibitory activity on NCI-N87 cell proliferation, NCI-N87 human gastric cancer cells, 72 h incubation, Cell Counting-Lite 2.0); 4.66 nM in the assay with HT29 cells (Homo sapiens, HT-29, 72 h); 0.18 nM in the assay with Jeko-1 cells (Homo sapiens, JeKo-1, 72 h); 172 nM in the assay with MDA-MB-231 cells (Homo sapiens, MDA-MB-231, 72 h).

`CC[C@@]1(O)C(=O)OCc2c1cc1n(c2=O)Cc2c-1nc1cc(F)c(C)c3c1c2[C@@H](NC(=O)[C@H](O)CN(C)C)CC3` (single isomer, unassigned) [Example 20 (1-10-A)]: the IC50 was determined as 61.6 nM in the assay with HT29 cells (Homo sapiens, HT-29, 72 h) and 97.6 nM in the assay on MDA-MB-231 cells (Homo sapiens, MDA-MB-231, 72 h).

On to `CC[C@@]1(O)C(=O)OCc2c1cc1n(c2=O)Cc2c-1nc1cc(F)c(C)c3c1c2[C@@H](NC(=O)[C@@H](O)CN(C)C)CC3` (single isomer, unassigned) [Example 20 (1-10-B)], for which the IC50 with HT29 cells (Homo sapiens, HT-29, 72 h) was determined as 10.3 nM; in the assay on MDA-MB-231 cells (Homo sapiens, MDA-MB-231, 72 h) it was 27.2 nM.

With `CC#C[C@H](O)C(=O)N[C@H]1CCc2c(C)c(F)cc3nc4c(c1c23)Cn1c-4cc2c(c1=O)COC(=O)[C@]2(O)CC` [Example 1 (1-1-B), (S)—N-((1S,9S)-9-ethyl-5-fluoro-9-hydroxy-4-methyl-10,13-dioxo-2,3,9,10,13,15-hexahydro-1H,12H-benzo[de]pyrano[3′,4′:6,7]indolizino[1,2-b]quinolin-1-yl)-2-hydroxypent-3-yneamide], the IC50 in the assay on HT29 cells (Homo sapiens, HT-29, 72 h) is 1.54 nM; in the assay with Hela cells, 3.65 nM.

In the case of `CC[C@@]1(O)C(=O)OCc2c1cc1n(c2=O)Cc2c-1nc1cc(Cl)c(C)c3c1c2[C@H](NC(=O)C1(O)CC1)CC3` [Example 7 (2-20-B), N-((1R,9S)-5-chloro-9-ethyl-9-hydroxy-4-methyl-10,13-dioxo-2,3,9,10,13,15-hexahydro-1H,12H-benzo[de]pyrano[3′,4′:6,7]indolizino[1,2-b]quinolin-1-yl)-1-hydroxycyclopropane-1-carboxamide], the IC50 in the assay with A549 cells was found to be 23.1 nM; in the assay on HT29 cells (Homo sapiens, HT-29, 72 h), 4.03 nM.

Turning to `CC[C@@]1(O)C(=O)OCc2c1cc1n(c2=O)Cc2c-1nc1cc(F)c(Cl)c3c1c2[C@@H](NC(=O)CO)CC3` [Example 9 (3-4-A), N-((1S,9S)-4-Chloro-9-ethyl-5-fluoro-9-hydroxy-10,13-dioxo-2,3,9,10,13,15-hexahydro-1H, 12H-benzo[de]pyrano[3′,4:6,7]indolizino[1,2-b]quinolin-1-yl)-2-hydroxyacetamide], the IC50 with NCI-N87 cells (NCI-N87 human gastric cancer cells, 72 h incubation, Cell Counting-Lite 2.0, read-out: IC50, inhibitory activity on NCI-N87 cell proliferation) was found to be 4.38 nM; in the assay with HT29 cells (HT29 human colon cancer cells, 72 h incubation, Cell Counting-Lite 2.0), 5.55 nM; with Jeko-1 cells (Jeko-1 human mantle cell lymphoma cells, 72 h incubation, Cell Counting-Lite 2.0), 0.27 nM; with MDA-MB-231 cells (MDA-MB-231 human breast cancer cells, 72 h incubation, Cell Counting-Lite 2.0), 285 nM.

Regarding `CC[C@@]1(O)C(=O)OCc2c1cc1n(c2=O)Cc2c-1nc1cc3c(cc1c2CCNC1CC1)OCO3` [Example 21 (4-14), (S)-14-(2-(Cyclopropylamino)ethyl)-7-ethyl-7-hydroxy-7H-[1,3]dioxolano[4,5-g]pyrano[3′,4′:6,7]indolizino[1,2-b]quinolin-8,11 (10H,13H)-dione], the IC50 in the assay on HT29 cells (Homo sapiens, HT-29, 72 h) is 0.56 nM; in the assay on SKOV-3 cells it was 2.16 nM; in the assay on Jeko-1 cells (Homo sapiens, JeKo-1, 72 h), 0.34 nM; with NCI-H358 cells, 12 nM.

As to `CC[C@@]1(O)C(=O)OCc2c1cc1n(c2=O)Cc2c-1nc1cc3c(cc1c2CCNCCOC)OCO3` [Example 22 (4-15), (S)-7-Ethyl-7-hydroxy-14-(2-((2-methoxyethyl)amino)ethyl)-7H-[1,3]dioxolano[4,5-g]pyrano[3′,4′:6,7]indolizino[1,2-b]quinolin-8,11 (10H,13H)-dione], the IC50 is 5.2 nM in the assay with HT29 cells (Homo sapiens, HT-29, 72 h); 0.11 nM with Jeko-1 cells (Homo sapiens, JeKo-1, 72 h); 175 nM in the assay with MDA-MB-231 cells (Homo sapiens, MDA-MB-231, 72 h); 17.8 nM in the assay with NCI-H358 cells.

(Values after patent US20250346606A1, “CAMPTOTHECIN COMPOUND, PREPARATION METHOD THEREFOR, AND APPLICATION THEREOF” (SICHUAN KELUN-BIOTECH BIOPHARMACEUTICAL CO., LTD., priority 2021, published 2025).)
